Measured values from patent US20260109707A1, “HETEROBIFUNCTIONAL COMPOUNDS AND METHODS OF TREATING DISEASE” (Halda Therapeutics OpCo. Inc., priority 2022, published 2026).

How the values were obtained:
[1] = tested on: T-Rex 293 cell line SC3 cells having increased expression of androgen receptor protein due to exposure to doxycycline; test: Cellular growth inhibition assay, T-Rex 293 SC3 cells with doxycycline (CellTiter-Glo, 72 hours); type: cell-based; settings: T-Rex 293 SC3 cells with increased androgen receptor expression due to doxycycline (10 ng/mL)
Protocol: (§1) The following types of cells were prepared for this experiment: (i) a T-Rex 293 cell line having increased expression of androgen receptor protein due to exposure to doxycycline and (ii) a T-Rex 293 cell line lacking increased expression of androgen receptor protein. Ability of the test compounds to inhibit proliferation of the foregoing cell types was evaluated according to the procedures set forth below.
(§2) The doxycycline-inducible androgen receptor protein expressing cell line was established using the following protocol: T-Rex 293 cells were purchased from Invitrogen (Cat #R71007) and transfected using Lipofectamine 2000 with the wild-type androgen receptor protein sequence cloned into the pcDNA4/TO vector. Transfected cells were selected using 400 μg/mL Zeocin (Invitrogen Cat #R25001). Following selection, single clones were raised and maintained in Dulbecco's Modified Eagle Medium (DMEM) supplemented with 10% w/w Tetracycline-free fetal bovine serum (FBS) and 250 μg/mL Zeocin. Clones were analyzed for expression of androgen receptor protein in the presence and absence of 10 ng/mL doxycycline (Sigma Cat #D9891), and a single doxycycline-inducible clone (hereinafter “SC3”) was selected for use in downstream assays.
(§3) The SC3 cells were seeded on poly-D-lysine coated, black clear-bottom 384-well plates at 2500/well, in 25 μL Phenol Red Free Dulbecco's Modified Eagle Medium (DMEM) supplemented with 10% w/w charcoal-dextran treated fetal bovine serum (FBS) and 1% w/w pen-strep, with or without 10 ng/mL doxycycline. Pen-Strep is a commercially available mixture of penicillin G and streptomycin, which is used in mammalian cell culture media to prevent bacterial contamination. Phenol Red Free Dulbecco's Modified Eagle Medium (DMEM) supplemented with 10% w/w charcoal-dextran treated fetal bovine serum (FBS) and 1% w/w pen-strep, with or without 10 ng/mL doxycycline is herein referred to as Treatment Medium. Following seeding of cells in the plates, the plates were spun at 300×g for 30 seconds, then equilibrated to room temperature for 30 minutes, and then deposited in a humidified tissue culture incubator maintained at 37° C. with 5% CO2.
(§4) At 24 hours after seeding of the cells, dilutions of test compound were prepared in DMSO and dissolved in Treatment Medium, to achieve a final DMSO concentration of 0.5% w/w, thereby providing the Test Compound Solution. A 25 μL aliquot of the Test Compound Solution was added to cells in the well plates. An equal volume of a solution containing DMSO and Treatment Medium was used as a negative control. Following treatment of cells with Test Compound Solution or said equal volume of a solution containing DMSO and Treatment Medium, the plates were spun at 300×g for 30 seconds, and then left in an incubator for 72 hours.
(§5) At the end of the treatment duration, cell viability was quantified with CellTiter-Glo 2.0 reagent (Promega Cat #G9243). For this purpose, plates were equilibrated to room temperature for 30 minutes, and then 25 μL of CellTiter-Glo 2.0 reagent was added to cells in the plate wells. Plates were then agitated on a shaker for two minutes at 500 rpm and subsequently incubated at room temperature for 10 minutes. Following incubation, the plates were spun at 3000×g for 30 seconds, then sealed with an optical adhesive cover, and luminescence readings were measured with an EnVision Plate Reader.
(§6) Data was normalized using zero luminescence for baseline. A four-parameter non-linear regression curve fit was applied to dose-response data in GraphPad Prism data analysis software to determine the half-maximal growth inhibitory concentration (GI50) for each test compound.

[2] = tested on: T-Rex 293 cell line SC3 cells lacking increased expression of androgen receptor protein; test: Cellular growth inhibition assay, T-Rex 293 SC3 cells without doxycycline (CellTiter-Glo, 72 hours); type: cell-based; settings: T-Rex 293 cell line SC3 cells not exposed to doxycycline (lacking increased androgen receptor expression)
Protocol: as §1, §2, §3, §4, §5, §6

In the case of Cc1sc2c(c1C)C(c1ccc(N3CCC(C)(Nc4ncc(C(=O)N[C@H]5CC[C@H](Oc6ccc(C#N)c(Cl)c6)CC5)cn4)CC3)cc1)=NC(Cc1ncco1)c1nnc(C)n1-2 (stereo partly drawn) [I-778], the GI50 ([1]; 72 h) is reported as less than 500 nM and the GI50 ([2]; 72 h) is reported as less than 500 nM.

Molecule Cc1sc2c(c1C)C(c1ccc(NCC3CN(c4ncc(C(=O)NC5CCC(Oc6ccc(C#N)c(Cl)c6)CC5)cn4)CCO3)cc1)=NC(Cc1ncco1)c1nnc(C)n1-2 (mixture of isomers) [I-814] has a GI50 [1] of less than 500 nM and a GI50 [2] of less than 500 nM.

In the case of Cc1sc2c(c1C)C(c1ccc(CC3CC(OC4CCN(c5ccc(C(=O)NC6CCC(Oc7ccc(C#N)c(Cl)c7)CC6)nn5)CC4)C3)cc1)=NC(C)c1nnc(C)n1-2 (stereo not drawn) [I-603], the GI50 ([1]; 72 h) is reported as less than 500 nM and the GI50 ([2]; 72 h) is reported as less than 500 nM.

In the case of Cc1sc2c(c1C)C(c1ccc(N3CCCC4(CCN(c5ncc(C(=O)N[C@H]6CC[C@H](Oc7ccc(C#N)c(Cl)c7)CC6)cn5)CC4)C3)cc1)=NC(Cc1ncco1)c1nnc(C)n1-2 (stereo partly drawn) [I-812], the GI50 ([1]; 72 h) is reported as less than 500 nM and the GI50 ([2]; 72 h) is reported as greater than 3000 nM.

Work on Cc1sc2c(c1C)C(c1ccc(N3CCC4(CC3)CC(Nc3ncc(C(=O)N[C@H]5CC[C@H](Oc6ccc(C#N)c(Cl)c6)CC5)cn3)C4)cc1)=NC(Cc1ncco1)c1nnc(C)n1-2 (stereo partly drawn) [I-818] yielded a GI50 ([1]; 72 h) of less than 500 nM and a GI50 ([2]; 72 h) of less than 500 nM.

In the case of Cc1sc2c(c1C)C(c1ccc(N3CCCN(CCCNc4ncc(C(=O)N[C@H]5CC[C@H](Oc6ccc(C#N)c(Cl)c6)CC5)cn4)CC3)cc1)=NC(Cc1ncco1)c1nnc(C)n1-2 (stereo partly drawn) [I-816], the GI50 ([1]; 72 h) is reported as less than 500 nM and the GI50 ([2]; 72 h) is reported as greater than 3000 nM.

In the case of Cc1sc2c(c1C)C(c1ccc(N3CCC4(CC3)CCN(c3ncc(C(=O)N[C@H]5CC[C@H](Oc6ccc(C#N)c(Cl)c6)CC5)cn3)C4)cc1)=NC(Cc1ncco1)c1nnc(C)n1-2 (mixture of isomers) [I-779], the GI50 [1] is reported as less than 500 nM and the GI50 [2] is reported as less than 500 nM.

With Cc1sc2c(c1C)C(c1ccc(N3C[C@H](F)C[C@@H](Nc4ncc(C(=O)N[C@H]5CC[C@H](Oc6ccc(C#N)c(Cl)c6)CC5)cn4)C3)cc1)=NC(Cc1ncco1)c1nnc(C)n1-2 (stereo partly drawn) [I-813] the GI50 ([1]; 72 h) was less than 500 nM and the GI50 ([2]; 72 h) was less than 500 nM.

Cc1sc2c(c1C)C(c1ccc(N3CC4CC3CN4c3ncc(C(=O)NC4CCC(Oc5ccc(C#N)c(Cl)c5)CC4)cn3)cc1)=NC(Cc1ncco1)c1nnc(C)n1-2 (mixture of isomers) [I-815] gave a GI50 [1] of less than 500 nM and a GI50 [2] of less than 500 nM.

In the case of Cc1sc2c(c1C)C(c1ccc(N[C@H]3CCN(c4ncc(C(=O)N[C@H]5CC[C@H](Oc6ccc(C#N)c(Cl)c6)CC5)cn4)C3)cc1)=NC(Cc1ncco1)c1nnc(C)n1-2 (stereo partly drawn) [I-773], the GI50 ([1]; 72 h) is reported as 500 to 1500 nM and the GI50 ([2]; 72 h) is reported as 500 to 1500 nM.

With Cc1sc2c(c1C)C(c1ccc(N3CCC(C)(CNc4ncc(C(=O)N[C@H]5CC[C@H](Oc6ccc(C#N)c(Cl)c6)CC5)cn4)CC3)cc1)=NC(Cc1ncco1)c1nnc(C)n1-2 (stereo partly drawn) [I-817] the GI50 ([1]; 72 h) was less than 500 nM and the GI50 ([2]; 72 h) was less than 500 nM.

Work on Cc1sc2c(c1C)C(c1ccc(NCC3CCCN(c4ncc(C(=O)N[C@H]5CC[C@H](Oc6ccc(C#N)c(Cl)c6)CC5)cn4)C3)cc1)=NC(Cc1ncco1)c1nnc(C)n1-2 (stereo partly drawn) [I-809] yielded a GI50 ([1]; 72 h) of less than 500 nM and a GI50 ([2]; 72 h) greater than 3000 nM.

Molecule COC[C@@H]1N=C(c2ccc(OC3CC4(CCCN(c5ccc(C(=O)N[C@H]6CC[C@H](Oc7ccc(C#N)c(Cl)c7)CC6)nn5)C4)C3)cc2)c2c(sc(C)c2C)-n2c(C)nnc21 (stereo partly drawn) [I-661] has a GI50 ([1]; 72 h) of less than 500 nM.

With Cc1sc2c(c1C)C(c1ccc(N3CC4(CCN(c5ncc(C(=O)N[C@H]6CC[C@H](Oc7ccc(C#N)c(Cl)c7)CC6)cn5)CC4)C3)cc1)=NC(Cc1ncco1)c1nnc(C)n1-2 (stereo partly drawn) [I-777] the GI50 ([1]; 72 h) was less than 500 nM and the GI50 ([2]; 72 h) was less than 500 nM.

Cc1sc2c(c1C)C(c1ccc(N3CCC4(CCN(c5ccc(C(=O)N[C@H]6CC[C@H](Oc7ccc(C#N)c(Cl)c7)CC6)nn5)C4)C3)cc1)=N[C@@H](C)c1nnc(C)n1-2 (stereo partly drawn) [I-535] showed a GI50 ([1]; 72 h) of less than 500 nM.

Cc1sc2c(c1C)C(c1ccc(N[C@H]3CC[C@@H](Nc4ncc(C(=O)N[C@H]5CC[C@H](Oc6ccc(C#N)c(Cl)c6)CC5)cn4)CC3)cc1)=NC(Cc1ncco1)c1nnc(C)n1-2 (stereo partly drawn) [I-775] gave a GI50 ([1]; 72 h) of less than 500 nM and a GI50 ([2]; 72 h) greater than 3000 nM.

In the case of Cc1sc2c(c1C)C(c1ccc(N3CCN(C4CCN(c5ncc(C(=O)N[C@H]6CC[C@H](Oc7ccc(C#N)c(Cl)c7)CC6)cn5)C4)CC3)cc1)=NC(Cc1ncco1)c1nnc(C)n1-2 (mixture of isomers) [I-783], the GI50 [1] is reported as less than 500 nM and the GI50 [2] is reported as less than 500 nM.

Work on Cc1sc2c(c1C)C(c1ccc(C#CC3CC4(CCCN(c5ccc(C(=O)N[C@H]6CC[C@H](Oc7ccc(C#N)c(Cl)c7)CC6)nn5)C4)C3)cc1)=NC1(CC1)c1nnc(C)n1-2 (stereo partly drawn) [I-472] yielded a GI50 ([1]; 72 h) of less than 500 nM and a GI50 [2] greater than 3000 nM.

Cc1sc2c(c1C)C(c1ccc(N3[C@@H]4CC[C@H]3C[C@@H](Nc3ncc(C(=O)N[C@H]5CC[C@H](Oc6ccc(C#N)c(Cl)c6)CC5)cn3)C4)cc1)=NC(Cc1ncco1)c1nnc(C)n1-2 (stereo partly drawn) [I-782] gave a GI50 [1] of less than 500 nM and a GI50 [2] greater than 3000 nM.

For Cc1sc2c(c1C)C(c1ccc(NCCC3CCN(c4ncc(C(=O)N[C@H]5CC[C@H](Oc6ccc(C#N)c(Cl)c6)CC5)cn4)CC3)cc1)=NC(Cc1ncco1)c1nnc(C)n1-2 (stereo partly drawn) [I-811], the GI50 ([1]; 72 h) was less than 500 nM and the GI50 ([2]; 72 h) was less than 500 nM.

Cc1sc2c(c1C)C(c1ccc(N3CCN(c4ncc(C(=O)N[C@H]5CC[C@H](Oc6ccc(C#N)c(Cl)c6)CC5)cn4)CC(F)(F)C3)cc1)=NC(Cc1ncco1)c1nnc(C)n1-2 (stereo partly drawn) [I-820] was tested, and the GI50 ([1]; 72 h) was less than 500 nM and the GI50 ([2]; 72 h) was less than 500 nM.

Molecule Cc1sc2c(c1C)C(c1ccc(N3CC[C@H](Nc4ncc(C(=O)N[C@H]5CC[C@H](Oc6ccc(C#N)c(Cl)c6)CC5)cn4)C3)cc1)=NC(Cc1ncco1)c1nnc(C)n1-2 (stereo partly drawn) [I-776] has a GI50 ([1]; 72 h) of less than 500 nM and a GI50 ([2]; 72 h) of less than 500 nM.

For Cc1sc2c(c1C)C(c1ccc(N3CCO[C@@H](CNc4ncc(C(=O)N[C@H]5CC[C@H](Oc6ccc(C#N)c(Cl)c6)CC5)cn4)C3)cc1)=NC(Cc1ncco1)c1nnc(C)n1-2 (stereo partly drawn) [I-819], the GI50 ([1]; 72 h) was less than 500 nM and the GI50 ([2]; 72 h) was less than 500 nM.

With COC[C@@H]1N=C(c2ccc(C3CCC4(CC3)CCN(c3ccc(C(=O)N[C@H]5CC[C@H](Oc6ccc(C#N)c(Cl)c6)CC5)nn3)C4)cc2)c2c(sc(C)c2C)-n2c(C)nnc21 (stereo partly drawn) [I-602] the GI50 ([2]; 72 h) was less than 500 nM.

Cc1sc2c(c1C)C(c1ccc(N[C@H]3CCN(c4ncc(C(=O)N[C@H]5CC[C@H](Oc6ccc(C#N)c(Cl)c6)CC5)cn4)C[C@@H]3F)cc1)=NC(Cc1ncco1)c1nnc(C)n1-2 (stereo partly drawn) [I-781] was tested, and the GI50 ([1]; 72 h) was less than 500 nM and the GI50 ([2]; 72 h) was less than 500 nM.

Cc1sc2c(c1C)C(c1ccc(NCCN3CCN(c4ncc(C(=O)N[C@H]5CC[C@H](Oc6ccc(C#N)c(Cl)c6)CC5)cn4)CC3)cc1)=NC(Cc1ncco1)c1nnc(C)n1-2 (stereo partly drawn) [I-774] was tested, and the GI50 ([1]; 72 h) was less than 500 nM and the GI50 ([2]; 72 h) was less than 500 nM.

Work on Cc1sc2c(c1C)C(c1ccc(N3CCCC(CNc4ncc(C(=O)NC5CCC(Oc6ccc(C#N)c(Cl)c6)CC5)cn4)C3)cc1)=NC(Cc1ncco1)c1nnc(C)n1-2 (mixture of isomers) [I-810] yielded a GI50 [1] of less than 500 nM and a GI50 [2] of 500 to 1500 nM.

For Cc1sc2c(c1C)C(c1ccc(N3C[C@@H]4CN(c5ccc(C(=O)N[C@H]6CC[C@H](Oc7ccc(C#N)c(Cl)c7)CC6)nn5)C[C@H]4C3)cc1)=N[C@@H](C)c1nnc(C)n1-2 [I-705], the GI50 ([2]; 72 h) was less than 500 nM.

With Cc1sc2c(c1C)C(c1ccc(N3CC(N4CCN(c5ncc(C(=O)N[C@H]6CC[C@H](Oc7ccc(C#N)c(Cl)c7)CC6)cn5)CC4)C3)cc1)=NC(Cc1ncco1)c1nnc(C)n1-2 (stereo partly drawn) [I-780] the GI50 ([1]; 72 h) was less than 500 nM and the GI50 ([2]; 72 h) was less than 500 nM.
